How the values were obtained:
[1] = target: T1, Solute carrier family 2, facilitated glucose transporter member 1 (Homo sapiens, UniProt P11166); experiment: Substrate activity at GLUT1 in human A549 cells assessed cellular uptake at 20 uM after 8 hrs by HPLC analysis relative to control; assay type: ADME, cell-based; conditions: a549, 8 h
T1 sequence (P11166 whole entry): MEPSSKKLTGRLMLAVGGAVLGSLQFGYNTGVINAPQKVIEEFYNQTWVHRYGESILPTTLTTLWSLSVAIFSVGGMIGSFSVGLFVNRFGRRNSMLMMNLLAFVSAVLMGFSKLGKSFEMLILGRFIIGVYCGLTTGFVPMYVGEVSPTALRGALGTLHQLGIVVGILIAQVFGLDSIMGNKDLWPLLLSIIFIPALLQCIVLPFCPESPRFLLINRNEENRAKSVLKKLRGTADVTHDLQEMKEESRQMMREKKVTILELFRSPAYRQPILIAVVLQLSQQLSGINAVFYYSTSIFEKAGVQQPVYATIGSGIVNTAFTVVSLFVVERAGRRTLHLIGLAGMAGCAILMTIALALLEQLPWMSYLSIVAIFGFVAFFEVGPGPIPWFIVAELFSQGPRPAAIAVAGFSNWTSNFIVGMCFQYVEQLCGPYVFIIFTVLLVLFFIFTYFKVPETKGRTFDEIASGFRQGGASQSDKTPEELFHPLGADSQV

[2] = Antiproliferative activity against human U87 cells after 48 hrs by MTT assay; assay type: functional, cell-based, U-87MG ATCC; conditions: U-87 MG
A549 [3] = experiment: Antiproliferative activity against human A549 cells after 48 hrs by MTT assay; assay type: functional, cell-based; conditions: A549, 48 h
HepG2 = experiment: Antiproliferative activity against human HepG2 cells after 48 hrs by MTT assay; assay type: functional, cell-based; conditions: HepG2, 48 h
HeLa = experiment: Antiproliferative activity against human HeLa cells after 48 hrs by MTT assay; assay type: functional, cell-based
A549 [4] = experiment: Potency index, ratio of gefitinib IC50 to compound IC50 against human A549 cells; assay type: functional
A549 [5] = experiment: Antimigratory activity against human A549 cells assessed as reduction in cell migration towards wound area after 48 hrs by phase contrast microscopic method; assay type: functional, cell-based
A549 [6] = experiment: Induction of apoptosis in human A549 cells assessed as live cells at 8 uM after 48 hrs by annexin V-FITC/propidium iodide staining-based flow cytometric method (reference value: 93.6%); assay type: functional
A549 [7] = experiment: Induction of apoptosis in human A549 cells assessed as early apoptotic cells at 8 uM after 48 hrs by annexin V-FITC/propidium iodide staining-based flow cytometric method (reference value: 3.87%); assay type: functional
A549 [8] = experiment: Induction of apoptosis in human A549 cells assessed as late apoptotic cells at 8 uM after 48 hrs by annexin V-FITC/propidium iodide staining-based flow cytometric method (reference value: 2.39%); assay type: functional
A549 [9] = experiment: Induction of apoptosis in human A549 cells assessed as necrotic cells at 8 uM after 48 hrs by annexin V-FITC/propidium iodide staining-based flow cytometric method (reference value: 0.13%); assay type: functional
A549 [10] = experiment: Induction of apoptosis in human A549 cells assessed as live cells at 16 uM after 48 hrs by annexin V-FITC/propidium iodide staining-based flow cytometric method (reference value: 93.6%); assay type: functional
A549 [11] = experiment: Induction of apoptosis in human A549 cells assessed as early apoptotic cells at 16 uM after 48 hrs by annexin V-FITC/propidium iodide staining-based flow cytometric method (reference value: 3.87%); assay type: functional
A549 [12] = experiment: Induction of apoptosis in human A549 cells assessed as late apoptotic cells at 16 uM after 48 hrs by annexin V-FITC/propidium iodide staining-based flow cytometric method (reference value: 2.39%); assay type: functional
A549 [13] = experiment: Induction of apoptosis in human A549 cells assessed as necrotic cells at 16 uM after 48 hrs by annexin V-FITC/propidium iodide staining-based flow cytometric method (reference value: 0.13%); assay type: functional
A549 [14] = experiment: Induction of apoptosis in human A549 cells assessed as live cells at 24 uM after 48 hrs by annexin V-FITC/propidium iodide staining-based flow cytometric method (reference value: 93.6%); assay type: functional
A549 [15] = experiment: Induction of apoptosis in human A549 cells assessed as early apoptotic cells at 24 uM after 48 hrs by annexin V-FITC/propidium iodide staining-based flow cytometric method (reference value: 3.87%); assay type: functional
A549 [16] = experiment: Induction of apoptosis in human A549 cells assessed as late apoptotic cells at 24 uM after 48 hrs by annexin V-FITC/propidium iodide staining-based flow cytometric method (reference value: 2.39%); assay type: functional
A549 [17] = experiment: Induction of apoptosis in human A549 cells assessed as necrotic cells at 24 uM after 48 hrs by annexin V-FITC/propidium iodide staining-based flow cytometric method (reference value: 0.13%); assay type: functional
A549 [18] = experiment: Cell cycle arrest in human A549 cells assessed as accumulation at G0/G1 phase at 8 uM after 48 hrs by propidium iodide staining based flow cytometric analysis (reference value: 42.86%); assay type: functional
A549 [19] = experiment: Cell cycle arrest in human A549 cells assessed as accumulation at S phase at 8 uM after 48 hrs by propidium iodide staining based flow cytometric analysis (reference value: 54.85%); assay type: functional
A549 [20] = experiment: Cell cycle arrest in human A549 cells assessed as accumulation at G2/M phase at 8 uM after 48 hrs by propidium iodide staining based flow cytometric analysis (reference value: 2.29%); assay type: functional
A549 [21] = experiment: Cell cycle arrest in human A549 cells assessed as accumulation at G0/G1 phase at 16 uM after 48 hrs by propidium iodide staining based flow cytometric analysis (reference value: 42.86%); assay type: functional
A549 [22] = experiment: Cell cycle arrest in human A549 cells assessed as accumulation at S phase at 16 uM after 48 hrs by propidium iodide staining based flow cytometric analysis (reference value: 54.85%); assay type: functional
A549 [23] = experiment: Cell cycle arrest in human A549 cells assessed as accumulation at G2/M phase at 16 uM after 48 hrs by propidium iodide staining based flow cytometric analysis (reference value: 2.29%); assay type: functional
A549 [24] = experiment: Cell cycle arrest in human A549 cells assessed as accumulation at G0/G1 phase at 24 uM after 48 hrs by propidium iodide staining based flow cytometric analysis (reference value: 42.86%); assay type: functional
A549 [25] = experiment: Cell cycle arrest in human A549 cells assessed as accumulation at S phase at 24 uM after 48 hrs by propidium iodide staining based flow cytometric analysis (reference value: 54.85%); assay type: functional
A549 [26] = experiment: Cell cycle arrest in human A549 cells assessed as accumulation at G2/M phase at 24 uM after 48 hrs by propidium iodide staining based flow cytometric analysis (reference value: 2.29%); assay type: functional
A549 [27] = experiment: Cell cycle arrest in human A549 cells assessed as accumulation at G0/G1 phase after 48 hrs by propidium iodide staining based flow cytometric analysis; assay type: functional
A549 [28] = experiment: Induction of apoptosis in human A549 cells after 48 hrs by annexin V-FITC/propidium iodide staining-based flow cytometric method; assay type: functional, cell-based
[29] = target: T1, Solute carrier family 2, facilitated glucose transporter member 1; experiment: Substrate activity at GLUT1 in human A549 cells assessed cellular uptake at 20 uM after 8 hrs in presence of 50 mM D-glucose by HPLC analysis relative to control; assay type: ADME, cell-based; conditions: a549, 8 h
[30] = target: T1, Solute carrier family 2, facilitated glucose transporter member 1; experiment: Substrate activity at GLUT1 in human A549 cells assessed cellular uptake at 20 uM after 8 hrs in presence of 100 mM D-glucose by HPLC analysis relative to control; assay type: ADME, cell-based; conditions: a549, 8 h
[31] = target: T1, Solute carrier family 2, facilitated glucose transporter member 1; experiment: Substrate activity at GLUT1 in human A549 cells assessed cellular uptake at 20 uM after 8 hrs in presence of 50 mM GLUT1 inhibitor EDG by HPLC analysis relative to control; assay type: ADME, cell-based; conditions: a549, 8 h
[32] = target: T1, Solute carrier family 2, facilitated glucose transporter member 1; experiment: Substrate activity at GLUT1 in human A549 cells assessed cellular uptake at 20 uM after 8 hrs in presence of 100 mM GLUT1 inhibitor EDG by HPLC analysis relative to control; assay type: ADME, cell-based; conditions: a549, 8 h

## COc1cc(COC(C)C)c(Br)c(Br)c1O
[1]
  Drug uptake: Not Active

## COc1cc(CO)c(Br)c(Br)c1OCCCO[C@@H]1O[C@H](CO)[C@@H](O)[C@H]1O
[2]
  IC50: 11.2 µM
A549 [3]
  IC50: 23.6 µM
HepG2
  IC50: 18.8 µM
HeLa
  IC50: 20.4 µM

## COc1cc(COC(C)C)c(Br)c(Br)c1OCCCO[C@@H]1O[C@H](CO)[C@@H](O)[C@H]1O
[2]
  IC50: 11.3 µM
A549 [3]
  IC50: 11.4 µM
HepG2
  IC50: 14.7 µM
HeLa
  IC50: 19.3 µM
A549 [4]
  Ratio IC50: 2
A549 [5]
  Activity: Dose-dependent effect
A549 [6]
  Activity: 91.8%
A549 [7]
  Activity: 4.18%
A549 [8]
  Activity: 3.75%
A549 [9]
  Activity: 0.24%
A549 [10]
  Activity: 88.1%
A549 [11]
  Activity: 7.66%
A549 [12]
  Activity: 3.91%
A549 [13]
  Activity: 0.32%
A549 [14]
  Activity: 81.8%
A549 [15]
  Activity: 13.7%
A549 [16]
  Activity: 4.35%
A549 [17]
  Activity: 0.15%
A549 [18]
  Activity: 59.17%
A549 [19]
  Activity: 40.83%
A549 [20]
  Activity: 0%
A549 [21]
  Activity: 76.56%
A549 [22]
  Activity: 23.44%
A549 [23]
  Activity: 0%
A549 [24]
  Activity: 89.56%
A549 [25]
  Activity: 10.25%
A549 [26]
  Activity: 0.19%
A549 [27]
  Activity: Dose-dependent effect
[1]
  Drug uptake: 60.3%
A549 [28]
  Activity: Dose-dependent effect
[29]
  Drug uptake: 51.6%
[30]
  Drug uptake: 49.1%
[31]
  Drug uptake: 42.1%
[32]
  Drug uptake: 34.6%

From ChEMBL document CHEMBL4024738, “Design of antitumor agents containing carbohydrate based on GLUT1, and evaluation of antiproliferative activity” (Bioorg Med Chem Lett, 2017)
